Test results from patent US20240335442A1 (Eurofarma Laboratórios S.A., priority 2021, published 2024).

Assays:
Type in all cases: cell-based
[1] = molecular target: T1, human sodium channel Nav 1.8 (Homo sapiens (Human), UniProt Q9Y5Y9); assay: Automated whole-cell voltage-clamp (ScreenPatch 384P), Nav 1.8 sodium current, Protocol 1; details: Protocol 1 (holding voltage -90 mV, 0.1 Hz); CHO cells expressing human Nav 1.8; room temperature; read-out: Nav1.8 IC50
Experimental: (§1) Biological assays were performed on Chinese hamster ovary (CHO) cells expressing the human sodium channels Nav 1.8 and Nav 1.7 stably.
(§2) The experimental voltage-clamp protocol using the whole cell configuration was established on the automated ScreenPatch® 384P platform (SP384PE, Nanion Technologies, Livingston, NJ) and recording of the results was performed with a Nanion 384-well Patch Clamp chip (NPC) (Nanion Technologies, Livingston, NJ).
(§3) Compounds of Formula (I), were diluted in eight concentrations in the extracellular solution composed of physiological saline, buffered with HEPES (mM): NaCl, 137; KCl, 4; CaCl2, 3.8; MgCl2, 1; HEPES, 10; Glucose, 10; pH 7.4. The […], 50; CsF, 90; MgCl2, 5; EGTA, 5; HEPES, 10; pH 7.2. The duration of exposure of each compound with the cells expressing Nav 1.7 or Nav 1.8 was at least five minutes and the assays were performed at room temperature.
(§4) The measurements of the sodium currents of Nav 1.8 and Nav 1.7 were obtained using the voltage protocols described below: • Protocol 1: A holding voltage of-90 mV was established followed by a voltage phase of 200 ms to-120 mV, followed by a voltage step of 10 mV for 1 second for Nav 1.8 or 0 mV for Nav 1.7, followed by a step of-100 mV for 20 ms, followed by a step of 20 ms for 10 mV for Nav 1.8 or 0 mV for Nav 1.7 (TP1A) before returning to the holding voltage of-90 mV. • Protocol 2: A holding voltage of-100 mV was established followed by an inactivation voltage step at −40 mV for 8 seconds, followed by a −100 mV step for 20 ms, followed by a 20 ms step for 10 mV for Nav 1.8 or 0 mV for Nav 1.7 (TP1A) before returning to the holding voltage of-100 mV.
(§5) Protocols were repeated at a frequency of 0.1 Hz (Protocol 1) or 0.05 Hz (Protocol 2) and current amplitude was quantified over the TP1A phase log. The variation in the peak amplitude of the current was evaluated according to the Formula described below, after exposure of the cells expressing the channels, at each concentration of the different compounds:
(§6) where ITP1A,basal, and ITP1A,molecule represent the entry peaks of sodium currents into TP1A prior to exposure to the compound and in the presence of the compound, respectively.
(§7) The decrease in peak current amplitude, after exposure of the cells to the compounds, was used to calculate the percent relative blocking of the channels relative to the positive control according to the Formula below: […]
(§8) where % V and % CP represent the averages of the values of current inhibition with a vehicle (DMSO) and positive controls, respectively. The sodium currents of the positive control were considered as 100%.
(§9) where [Test] represents the concentration of the evaluated molecule, IC50 is the concentration of the compound that generates half of the maximum inhibition, N is the Hill's coefficient and % Block′ is the percentage of the sodium channel current (Nav 1.8 and Nav 1.7) inhibited at each concentration of the evaluated molecule. Data were obtained by non linear least squares regression with XL fit for Excel (Microsoft, Redmond, WA).
(§10) Compounds were tested in at least one assay to obtain the IC50 value.

[2] = molecular target: T2, human sodium channel Nav 1.7 (Homo sapiens (Human), UniProt Q15858); assay: Automated whole-cell voltage-clamp (ScreenPatch 384P), Nav 1.7 sodium current, Protocol 1; details: Protocol 1 (holding voltage -90 mV, 0.1 Hz); CHO cells expressing human Nav 1.7; room temperature; read-out: Nav1.7 IC50
Experimental: as §1, §2, §3, §4, §5, §6, §7, §8, §9, §10

[3] = molecular target: T1, human sodium channel Nav 1.8; assay: Automated whole-cell voltage-clamp (ScreenPatch 384P), Nav 1.8 sodium current, Protocol 2; details: read-out: Nav1.8 IC50
Procedure, shortened: (§11)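 Peak TP1A sodium current block, scaled between DMSO vehicle and positive control, was fitted with a Hill equation to give IC50 at eight compound concentrations (≥5 min, room temperature) in stable CHO lines. Protocol 2 (0.05 Hz) used an 8 s −40 mV inactivating prepulse from −100 mV; Protocol 1 (0.1 Hz) held at −90 mV; test steps 10 mV for Nav1.8, 0 mV for Nav1.7.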

[4] = molecular target: T2, human sodium channel Nav 1.7; assay: Automated whole-cell voltage-clamp (ScreenPatch 384P), Nav 1.7 sodium current, Protocol 2; details: read-out: Nav1.7 IC50
Procedure, shortened: as §11

T2 sequence (Q15858 whole entry): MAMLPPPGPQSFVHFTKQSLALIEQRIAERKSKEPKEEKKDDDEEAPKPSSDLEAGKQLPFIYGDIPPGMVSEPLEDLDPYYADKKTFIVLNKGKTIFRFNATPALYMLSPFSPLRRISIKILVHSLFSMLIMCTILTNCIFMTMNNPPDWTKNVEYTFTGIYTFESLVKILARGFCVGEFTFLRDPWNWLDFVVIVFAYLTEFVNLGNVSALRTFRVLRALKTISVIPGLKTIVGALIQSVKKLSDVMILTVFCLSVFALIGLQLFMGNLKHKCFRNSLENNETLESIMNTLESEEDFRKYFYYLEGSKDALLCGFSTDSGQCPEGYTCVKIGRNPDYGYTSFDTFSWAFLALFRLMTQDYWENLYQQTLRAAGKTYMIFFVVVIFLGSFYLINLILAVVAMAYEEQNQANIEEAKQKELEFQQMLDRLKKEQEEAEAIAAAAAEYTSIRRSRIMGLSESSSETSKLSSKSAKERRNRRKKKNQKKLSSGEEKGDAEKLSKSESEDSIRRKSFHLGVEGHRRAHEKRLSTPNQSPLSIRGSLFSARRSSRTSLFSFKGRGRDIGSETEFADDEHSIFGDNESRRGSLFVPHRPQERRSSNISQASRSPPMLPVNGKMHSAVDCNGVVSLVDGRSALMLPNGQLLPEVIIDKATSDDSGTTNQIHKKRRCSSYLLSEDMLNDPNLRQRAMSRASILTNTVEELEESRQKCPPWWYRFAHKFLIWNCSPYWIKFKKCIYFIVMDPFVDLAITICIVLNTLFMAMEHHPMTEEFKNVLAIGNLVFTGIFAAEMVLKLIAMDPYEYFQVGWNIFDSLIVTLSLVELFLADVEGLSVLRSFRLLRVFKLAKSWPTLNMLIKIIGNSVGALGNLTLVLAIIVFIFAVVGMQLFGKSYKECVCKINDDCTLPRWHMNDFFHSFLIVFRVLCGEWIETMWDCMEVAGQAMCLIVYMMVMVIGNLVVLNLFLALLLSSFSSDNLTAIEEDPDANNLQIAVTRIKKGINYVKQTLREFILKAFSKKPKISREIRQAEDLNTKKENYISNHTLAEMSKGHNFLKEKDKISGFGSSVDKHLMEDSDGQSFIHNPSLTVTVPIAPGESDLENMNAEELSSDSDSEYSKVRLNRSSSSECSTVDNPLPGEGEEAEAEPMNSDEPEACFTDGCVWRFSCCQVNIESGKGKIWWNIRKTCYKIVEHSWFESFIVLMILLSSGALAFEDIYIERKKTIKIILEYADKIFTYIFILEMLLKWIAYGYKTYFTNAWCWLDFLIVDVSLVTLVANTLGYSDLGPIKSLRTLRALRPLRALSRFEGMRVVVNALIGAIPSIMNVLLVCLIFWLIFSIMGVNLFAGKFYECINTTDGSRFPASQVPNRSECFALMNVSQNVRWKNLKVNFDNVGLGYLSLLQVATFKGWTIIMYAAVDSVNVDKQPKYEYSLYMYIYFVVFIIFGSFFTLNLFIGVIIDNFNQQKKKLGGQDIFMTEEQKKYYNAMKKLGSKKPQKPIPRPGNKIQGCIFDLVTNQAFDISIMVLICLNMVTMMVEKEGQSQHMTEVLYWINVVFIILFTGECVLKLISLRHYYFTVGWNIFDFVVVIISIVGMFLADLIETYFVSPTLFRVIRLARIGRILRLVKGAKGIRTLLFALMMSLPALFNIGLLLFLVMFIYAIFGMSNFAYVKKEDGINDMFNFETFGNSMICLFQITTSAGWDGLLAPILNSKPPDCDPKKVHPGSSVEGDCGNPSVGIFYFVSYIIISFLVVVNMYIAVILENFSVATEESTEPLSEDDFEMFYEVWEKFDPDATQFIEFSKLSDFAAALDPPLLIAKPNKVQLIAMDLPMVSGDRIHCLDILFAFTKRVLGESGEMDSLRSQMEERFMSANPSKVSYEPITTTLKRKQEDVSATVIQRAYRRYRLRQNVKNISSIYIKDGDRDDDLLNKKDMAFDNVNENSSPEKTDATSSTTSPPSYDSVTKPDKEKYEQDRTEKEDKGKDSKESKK
T1 sequence (Q9Y5Y9 whole entry): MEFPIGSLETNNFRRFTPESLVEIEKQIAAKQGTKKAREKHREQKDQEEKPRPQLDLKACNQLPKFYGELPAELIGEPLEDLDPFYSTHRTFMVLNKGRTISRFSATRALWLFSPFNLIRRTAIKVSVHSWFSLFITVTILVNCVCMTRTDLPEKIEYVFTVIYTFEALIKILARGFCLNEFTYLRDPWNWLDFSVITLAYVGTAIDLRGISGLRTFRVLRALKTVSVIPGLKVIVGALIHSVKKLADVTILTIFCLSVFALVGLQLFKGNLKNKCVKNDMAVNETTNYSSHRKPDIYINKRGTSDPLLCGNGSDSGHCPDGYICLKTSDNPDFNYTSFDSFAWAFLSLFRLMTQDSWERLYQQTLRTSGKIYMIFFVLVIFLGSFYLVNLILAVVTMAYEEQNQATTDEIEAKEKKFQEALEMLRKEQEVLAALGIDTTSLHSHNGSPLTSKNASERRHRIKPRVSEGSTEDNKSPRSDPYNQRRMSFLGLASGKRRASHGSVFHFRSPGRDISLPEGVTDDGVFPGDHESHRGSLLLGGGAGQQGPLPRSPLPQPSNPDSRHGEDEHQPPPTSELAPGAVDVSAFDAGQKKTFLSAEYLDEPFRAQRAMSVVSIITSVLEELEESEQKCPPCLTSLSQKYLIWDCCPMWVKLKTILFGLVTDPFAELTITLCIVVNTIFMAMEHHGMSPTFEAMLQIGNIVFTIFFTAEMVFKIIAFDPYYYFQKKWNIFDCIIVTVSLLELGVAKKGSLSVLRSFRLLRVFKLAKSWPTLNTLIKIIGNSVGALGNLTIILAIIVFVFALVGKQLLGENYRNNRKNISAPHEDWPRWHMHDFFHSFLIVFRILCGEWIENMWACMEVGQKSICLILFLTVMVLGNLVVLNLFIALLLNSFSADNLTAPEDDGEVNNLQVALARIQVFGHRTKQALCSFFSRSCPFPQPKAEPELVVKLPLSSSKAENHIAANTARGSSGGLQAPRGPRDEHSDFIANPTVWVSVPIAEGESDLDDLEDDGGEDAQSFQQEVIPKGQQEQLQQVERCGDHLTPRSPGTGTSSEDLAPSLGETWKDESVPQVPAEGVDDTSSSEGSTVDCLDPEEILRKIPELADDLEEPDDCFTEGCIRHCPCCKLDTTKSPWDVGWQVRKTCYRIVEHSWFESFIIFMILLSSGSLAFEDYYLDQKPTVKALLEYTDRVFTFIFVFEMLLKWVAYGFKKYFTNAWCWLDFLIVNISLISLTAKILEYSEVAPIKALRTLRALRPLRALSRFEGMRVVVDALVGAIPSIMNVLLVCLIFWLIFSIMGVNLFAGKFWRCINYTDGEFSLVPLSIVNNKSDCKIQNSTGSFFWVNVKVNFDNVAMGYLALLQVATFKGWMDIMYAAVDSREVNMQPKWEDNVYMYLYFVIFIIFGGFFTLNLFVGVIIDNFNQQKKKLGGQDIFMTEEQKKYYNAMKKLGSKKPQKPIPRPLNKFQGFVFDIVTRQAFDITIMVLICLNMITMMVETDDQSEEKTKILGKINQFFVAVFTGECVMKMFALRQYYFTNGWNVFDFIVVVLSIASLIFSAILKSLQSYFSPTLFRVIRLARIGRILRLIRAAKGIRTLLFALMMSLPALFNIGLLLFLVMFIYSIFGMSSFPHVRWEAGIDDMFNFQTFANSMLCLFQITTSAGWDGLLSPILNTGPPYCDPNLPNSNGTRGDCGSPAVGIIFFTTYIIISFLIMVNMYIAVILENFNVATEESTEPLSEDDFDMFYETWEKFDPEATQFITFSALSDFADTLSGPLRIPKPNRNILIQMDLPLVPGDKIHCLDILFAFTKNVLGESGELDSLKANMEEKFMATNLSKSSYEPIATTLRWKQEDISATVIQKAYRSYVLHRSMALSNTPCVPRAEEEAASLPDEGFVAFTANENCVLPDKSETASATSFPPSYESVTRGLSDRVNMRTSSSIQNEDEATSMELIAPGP

## CCOc1ccc(-c2cncc(C(=O)N/N=C/c3cc(OC)cc(OCCN(C)C)c3)n2)cc1 [Compound 4, (E)-N′-(3-(2-(dimethylamino)ethoxy)-5-methoxybenzylidene)-6-(4-ethoxyphenyl)pyrazine-2-carbohydrazide]
[1]
  IC50: 6020 nM
[2]
  IC50: 6660 nM

## CCOc1ccc(-c2cncc(C(=O)N/N=C/c3cc(OC)cc4ncoc34)n2)cc1 [Compound 5, (E)-6-(4-ethoxyphenyl)-N′-((5-methoxybenzo[d]oxazol-7-yl)methylene)pyrazine-2-carbohydrazide]
[1]
  IC50: 5630 nM
[2]
  IC50: > 10000 nM

## CCOc1ccc(-c2cncc(C(=O)N/N=C/c3cncc(OC)c3)n2)cc1 [Compound 8, (E)-6-(4-ethoxyphenyl)-N′-((5-methoxypyridin-3-yl)methylene)pyrazine-2-carbohydrazide]
[1]
  IC50: > 10000 nM
[2]
  IC50: > 10000 nM

## CCOc1ccc(-c2cncc(C(=O)N/N=C/c3cc(OC)ccn3)n2)cc1 [Compound 9, (E)-6-(4-ethoxyphenyl)-N′-((4-methoxypyridin-2-yl)methylene)pyrazine-2-carbohydrazide]
[1]
  IC50: 9770 nM
[2]
  IC50: > 10000 nM

## CCOc1ccc(-c2cncc(C(=O)N/N=C/c3cccc(OC)n3)n2)cc1 [Compound 11, (E)-6-(4-ethoxyphenyl)-N′-((6-methoxypyridin-2-yl)methylene)pyrazine-2-carbohydrazide]
[1]
  IC50: 3230 nM
[2]
  IC50: 4520 nM

## CCOc1ccc(-c2cncc(C(=O)N/N=C/c3ccc(OC)cc3)n2)cc1 [Compound 23, (E)-6-(4-ethoxyphenyl)-N′-(4-methoxybenzylidene)pyrazine-2-carbohydrazide]
[1]
  IC50: 1900 nM
[2]
  IC50: 697 nM

## CCOc1ccc(-c2cncc(C(=O)N/N=C/c3ccncc3)n2)cc1 [Compound 24, (E)-6-(4-ethoxyphenyl)-N′-(pyridin-4-ylmethylene)pyrazine-2-carbohydrazide]
[1]
  IC50: 8090 nM
[2]
  IC50: > 10000 nM

## CCOc1ccc(-c2cncc(C(=O)N/N=C/c3ccccn3)n2)cc1 [Compound 25, (E)-6-(4-ethoxyphenyl)-N′-(pyridin-2-ylmethylene)pyrazine-2-carbohydrazide]
[1]
  IC50: > 10000 nM
[2]
  IC50: > 10000 nM

## CCOc1ccc(-c2cncc(C(=O)N/N=C/c3ccc(OC)c(OC)c3)n2)cc1 [Compound 28, (E)-N′-(3,4-dimethoxybenzylidene)-6-(4-ethoxyphenyl)pyrazine-2-carbohydrazide]
[1]
  IC50: 2370 nM
[2]
  IC50: 1400 nM

## CCOc1ccc(-c2cncc(C(=O)N/N=C/C3CCCCCC3)n2)cc1 [Compound 182, (E)-N′-(cycloheptylmethylene)-6-(4-ethoxyphenyl)pyrazine-2-carbohyrazide]
[3]
  IC50: 300 nM
[4]
  IC50: > 10000 nM

## CC(C)Oc1ccc(-c2cncc(C(=O)N/N=C/C3CCCCCC3)n2)cc1 [Compound 183, (E)-N′-(cycloheptylmethylene)-6-(4-isopropoxyphenyl)pyrazine-2-carbohyazide]
[3]
  IC50: 231 nM
[4]
  IC50: 256 nM

## COc1cc(/C=N/NC(=O)c2cncc(-c3ccc(OC)nc3)n2)cc(OC)c1 [Compound 184, (E)-N′-(3,5-dimethoxybenzylidene)-6-(6-methoxypyridin-3-yl)pyrazine-2-carbohydrazide]
[3]
  IC50: 398 nM
[4]
  IC50: > 10000 nM

## CCOc1ccc(-c2cncc(C(=O)N/N=C/c3cc(OC)cc(OC)c3)n2)c(C(F)(F)F)c1 [Compound 187]
[3]
  IC50: 496 nM
[4]
  IC50: 219 nM

## CCOc1ccc(-c2cncc(C(=O)N/N=C/c3ccc(C(=O)NS(C)(=O)=O)cc3)n2)cc1 [Compound 188, (E)-4-((2-(6-(4-ethoxyphenyl)pyrazine-2-carbonyl)hydrazinalidene)methyl)-N-(methylsulfonyl)benzamide]
[3]
  IC50: > 1000 nM
[4]
  IC50: > 10000 nM

## COc1cc(/C=N/NC(=O)c2cncc(-c3ccc(C(=O)NS(C)(=O)=O)cc3)n2)cc(OC)c1 [Compound 190, (E)-4-(6-(2-(3,5-dimethoxybenzylidene)hydrazine-1-carbonyl)pyrazin-2-yl)-N-(methylsulfonyl)benzamide]
[3]
  IC50: > 1000 nM
[4]
  IC50: > 10000 nM

## CCOc1ccc(-c2cncc(C(=O)N/N=C/c3ccccc3CS(C)(=O)=O)n2)cc1 [Compound 191, (E)-6-(4-ethoxyphenyl)-N′-(2-((methylsulfonyl)methyl)benzylidene)pyrazine-2-carbohydrazide]
[3]
  IC50: > 1000 nM
[4]
  IC50: 3200 nM

## CCOc1ccc(-c2cncc(C(=O)N/N=C/c3ccccc3S(C)(=O)=O)n2)cc1 [Compound 192]
[3]
  IC50: 952 nM
[4]
  IC50: 7220 nM

## CCOc1ccc(-c2cncc(C(=O)N/N=C/c3ccccc3NS(C)(=O)=O)n2)cc1 [Compound 193, (E)-N-(2-((2-(6-(4-ethoxyphenyl)pyrazine-2-carbonyl)hydrazinalidene)methyl)phenyl)methanesulfonamide]
[3]
  IC50: > 1000 nM
[4]
  IC50: > 10000 nM

## CC1=C(/C=N/NC(=O)c2cncc(-c3ccc(OC(C)C)cc3)n2)CCCC1 [Compound 199, (E)-6-(4-isopropoxyphenyl)-N′-((2-methylcyclohept-1-en-1-yl)methylene)pyrazine-2-carbohydrzide]
[3]
  IC50: 166 nM
[4]
  IC50: 1740 nM

## COc1ccc(-c2cncc(C(=O)N/N=C/C3=C(C)CCCCC3)n2)cc1 [Compound 200]
[3]
  IC50: 129 nM
[4]
  IC50: 2650 nM

## CC1=C(/C=N/NC(=O)c2cncc(-c3ccc(OC(C)C)cc3)n2)CCCCC1 [Compound 202, (E)-6-(4-isopropoxyphenyl)-N′-((2-methylcyclohept-1-en-1-yl)methylene)pyrazine-2-carbohydrazide]
[3]
  IC50: 93 nM
[4]
  IC50: 107 nM

## CCOc1ccc(-c2nc(C(=O)N/N=C/c3cc(OC)cc(OC)c3)cnc2N)cc1 [Compound 206, (E)-5-amino-N′-(3,5-dimethoxybenzylidene)-6-(4-ethoxyphenyl)pyrazine-2-carbohydrazide]
[3]
  IC50: > 1000 nM
[4]
  IC50: > 10000 nM

## CCOc1ccc(-c2nc(C(=O)N/N=C/c3cc(OC)cc(OC)c3)cnc2Cl)cc1 [Compound 209, (E)-5-chloro-N′-(3,5-dimethoxybenzylidene)-6-(4-ethoxyphenyl)pyrazine-2-carbohydrazide]
[3]
  IC50: 189 nM
[4]
  IC50: 2470 nM

## CCOc1ccc(-c2nc(C(=O)N/N=C/c3cc(OC)cc(OC)c3)cnc2C(F)(F)F)cc1 [Compound 210, (E)-N′-(3,5-dimethoxybenzylidene)-6-(4-ethoxyphenyl)-5-(trifluoromethyl)pyrazine-2-carbohydrazide]
[3]
  IC50: 680 nM
[4]
  IC50: > 10000 nM

## CCOc1ccc(-c2nc(C(=O)N/N=C/c3cc(OC)cc(OC)c3)cnc2OCC)cc1 [Compound 212, (E)-N′-(3,5-dimethoxybenzylidene)-5-ethoxy-6-(4-ethoxyphenyl)pyrazine-2-carbohydrazide]
[3]
  IC50: > 1000 nM
[4]
  IC50: > 10000 nM

## CCOc1cc(C)c(-c2cncc(C(=O)N/N=C/c3cccc(OC)c3)n2)c(C)c1 [Compound 213, (E)-6-(4-ethoxy-2,6-diemthylphenyl)-N′-(3-methoxybenzylidene)pyrazine-2-carbohydrazide]
[3]
  IC50: > 1000 nM
[4]
  IC50: > 10000 nM

## CCOc1ccc(-c2cncc(C(=O)N/N=C/c3cc(CCO)cc(OC)c3)n2)cc1 [Compound 214]
[3]
  IC50: > 1000 nM
[4]
  IC50: > 10000 nM
